Here are results for 42 compounds from ChEMBL document CHEMBL4229439, “Design, synthesis and antimycobacterial activity of 3,5-dinitrobenzamide derivatives containing fused ring moieties” (2018).

A word on the MIC: it is the lowest concentration found to suppress growth. Low readings indicate greater potency, high ones weaker potency.

Assay [1] concerns Mycobacterium tuberculosis. In words: Antimycobacterial activity against Mycobacterium tuberculosis H37Rv ATCC 27294 after 7 days by Alamar blue assay. The format is functional. To be noted: H37Rv ATCC 27294, 168 h. A general note: The colour change of resazurin is a common sign of viable cells or microbes.
Assay [2] deals with Mycobacterium tuberculosis. The assay can be described thus: Antimycobacterial activity against Mycobacterium tuberculosis H37Rv ATCC 27294 up to 10 ug/ml after 7 days by Alamar blue assay. The format is functional, organism-based.

In brackets after ≈: the same amount, converted by molar mass. Activity calls are given as the source filed them. The calls are words filed in the database; no cut-off is given here.

Turning to `O=C(NCc1ccc2c(c1)CCN(C(=O)CC1CCCCC1)C2)c1cc([N+](=O)[O-])cc([N+](=O)[O-])c1`, the minimal inhibitory concentration (MIC) in assay [1] turned out to be 0.978 µg/mL (≈ 2.04 µM).
As to `O=C(NCc1ccc2c(c1)CCN(C(=O)C1CCCCC1)C2)c1cc([N+](=O)[O-])cc([N+](=O)[O-])c1`, the MIC in assay [1] stood at 0.5 µg/mL (≈ 1.07 µM).
With `COc1ccc(CN2Cc3ccc(CNC(=O)c4cc([N+](=O)[O-])cc([N+](=O)[O-])c4)cc3C2)cc1`, the minimum inhibitory concentration (MIC) in assay [1] is 0.03 µg/mL (≈ 0.0649 µM).
Turning to `CCN(CC)C(=O)CN1CCc2cc(CNC(=O)c3cc([N+](=O)[O-])cc([N+](=O)[O-])c3)ccc2C1`, it took 15.3 µg/mL (≈ 32.7 µM) to inhibit growth in assay [1] (MIC).
The compound `O=C(NCc1ccc2c(c1)CCN(Cc1ccc(F)cc1)C2)c1cc([N+](=O)[O-])cc([N+](=O)[O-])c1` registered an MIC in assay [1] of 0.122 µg/mL (≈ 0.263 µM).
`O=C(NCc1ccc2c(c1)CCN(C(=O)c1ccc(F)cc1)C2)c1cc([N+](=O)[O-])cc([N+](=O)[O-])c1` gave an MIC in assay [1] of 0.424 µg/mL (≈ 0.886 µM).
`O=C(NCc1ccc2c(c1)CNC2)c1cc([N+](=O)[O-])cc([N+](=O)[O-])c1` returned a minimum inhibitory concentration (MIC) in assay [1] of under 0.016 µg/mL. The outcome in assay [2] was inactive.
`CC(C)(C)C(=O)N1CCc2cc(CNC(=O)c3cc([N+](=O)[O-])cc([N+](=O)[O-])c3)ccc2C1` gave an MIC in assay [1] of 0.447 µg/mL (≈ 1.01 µM).
As for `CCC(C)C(=O)N1CCc2cc(CNC(=O)c3cc([N+](=O)[O-])cc([N+](=O)[O-])c3)ccc2C1` (stereo not drawn), in assay [1], the MIC stood at 0.468 µg/mL (≈ 1.06 µM).
As to `O=C(NCc1ccc2c(c1)CCN(Cc1cc(C(F)(F)F)cc(C(F)(F)F)c1)C2)c1cc([N+](=O)[O-])cc([N+](=O)[O-])c1`, in assay [1], the minimum inhibitory concentration (MIC) turned out to be 1.9 µg/mL (≈ 3.26 µM).
In assay [1], `COc1ccc(C(=O)N2Cc3ccc(CNC(=O)c4cc([N+](=O)[O-])cc([N+](=O)[O-])c4)cc3C2)cc1` came in with an MIC of over 32 µg/mL.
Compound `O=C(NCc1ccc2c(c1)CN(Cc1ccc(OC(F)(F)F)cc1)C2)c1cc([N+](=O)[O-])cc([N+](=O)[O-])c1` gave a minimum inhibitory concentration (MIC) in assay [1] of 0.016 µg/mL (≈ 0.031 µM).
In turn, `O=C(NCc1ccc2c(c1)CCN(Cc1cccc(F)c1)C2)c1cc([N+](=O)[O-])cc([N+](=O)[O-])c1` yielded an MIC in assay [1] of 0.056 µg/mL (≈ 0.121 µM). Against the preceding compound, the MIC is about 3.5-fold higher.
For `O=C(NCc1ccc2c(c1)CN(Cc1ccc(C(F)(F)F)cc1)C2)c1cc([N+](=O)[O-])cc([N+](=O)[O-])c1`, the minimum inhibitory concentration (MIC) in assay [1] was under 0.016 µg/mL.
Take `O=C(NCc1ccc2c(c1)CCN(Cc1ccc(Cl)cc1)C2)c1cc([N+](=O)[O-])cc([N+](=O)[O-])c1`: the MIC in assay [1] came to 0.056 µg/mL (≈ 0.116 µM).
The same measure, in the same setting: the figure for `O=C(NCc1ccc2c(c1)CCN(c1ccc(C(F)(F)F)cc1)C2)c1cc([N+](=O)[O-])cc([N+](=O)[O-])c1` is 0.079 µg/mL (≈ 0.158 µM).
`CCOC(=O)CN1CCc2cc(CNC(=O)c3cc([N+](=O)[O-])cc([N+](=O)[O-])c3)ccc2C1` yielded an MIC in assay [1] of 0.243 µg/mL (≈ 0.549 µM).
On to `O=C(NCc1ccc2c(c1)CCN(c1ccc(OC(F)(F)F)cc1)C2)c1cc([N+](=O)[O-])cc([N+](=O)[O-])c1`, for which the MIC in assay [1] came to 0.241 µg/mL (≈ 0.467 µM).
For the compound `O=C(NCc1ccc2c(c1)CN(C(=O)C1CCCCC1)C2)c1cc([N+](=O)[O-])cc([N+](=O)[O-])c1`, in assay [1], it took 0.808 µg/mL (≈ 1.79 µM) to inhibit growth (MIC).
As for `CC(C)(C)OC(=O)CN1CCc2cc(CNC(=O)c3cc([N+](=O)[O-])cc([N+](=O)[O-])c3)ccc2C1`, the minimum inhibitory concentration (MIC) in assay [1] came to 3.81 µg/mL (≈ 8.1 µM).
The same measure, in the same setting: the figure for `NNC(=O)c1ccncc1` [ISONIAZID] is 0.039 µg/mL (≈ 0.284 µM); for `O=C(NCc1ccc2c(c1)CCN(C(=O)c1ccccc1)C2)c1cc([N+](=O)[O-])cc([N+](=O)[O-])c1` it is 0.974 µg/mL (≈ 2.12 µM); for `O=C(CN1CCc2cc(CNC(=O)c3cc([N+](=O)[O-])cc([N+](=O)[O-])c3)ccc2C1)OCc1ccccc1` it is 7.55 µg/mL (≈ 15 µM).
As for `CC(=O)CCN1CCc2cc(CNC(=O)c3cc([N+](=O)[O-])cc([N+](=O)[O-])c3)ccc2C1`, inhibition of growth in assay [1] (MIC) required 22.7 µg/mL (≈ 53.3 µM).
Same read-out and setting: the figure for `CC(=O)CN1CCc2cc(CNC(=O)c3cc([N+](=O)[O-])cc([N+](=O)[O-])c3)ccc2C1` is 3.12 µg/mL (≈ 7.56 µM).
Same read-out and setting: the figure for `O=C(NCc1ccc2c(c1)CN(Cc1ccc(F)cc1)C2)c1cc([N+](=O)[O-])cc([N+](=O)[O-])c1` is 0.028 µg/mL (≈ 0.0622 µM).
The compound `CN1CCc2cc(CNC(=O)c3cc([N+](=O)[O-])cc([N+](=O)[O-])c3)ccc2C1` came in with a minimal inhibitory concentration (MIC) in assay [1] of 11.4 µg/mL (≈ 30.9 µM).
Still for that read-out and setting: the figure for `O=C(NCc1ccc2c(c1)CN(c1ccc(C(F)(F)F)cc1)C2)c1cc([N+](=O)[O-])cc([N+](=O)[O-])c1` is 0.098 µg/mL (≈ 0.201 µM); for `O=C(NCc1ccc2c(c1)CN(C(=O)c1ccc(OC(F)(F)F)cc1)C2)c1cc([N+](=O)[O-])cc([N+](=O)[O-])c1` it is 0.309 µg/mL (≈ 0.583 µM).
Regarding `O=C(NCc1ccc2c(c1)CN(C(=O)c1ccc(F)cc1)C2)c1cc([N+](=O)[O-])cc([N+](=O)[O-])c1`, in assay [1], the MIC stood at 0.926 µg/mL (≈ 1.99 µM). This MIC lies about 3-fold higher than the previous one.
`O=C(NCc1ccc2c(c1)CCN(CC1CCCCC1)C2)c1cc([N+](=O)[O-])cc([N+](=O)[O-])c1` displayed an MIC in assay [1] of 0.226 µg/mL (≈ 0.499 µM).
The same measure, in the same setting: the figure for `CC(C)CC(=O)N1CCc2cc(CNC(=O)c3cc([N+](=O)[O-])cc([N+](=O)[O-])c3)ccc2C1` is 0.204 µg/mL (≈ 0.463 µM); for `CC(C)(C)C(=O)N1Cc2ccc(CNC(=O)c3cc([N+](=O)[O-])cc([N+](=O)[O-])c3)cc2C1` it is 0.489 µg/mL (≈ 1.15 µM).
In assay [1], `O=C(NCc1ccc2c(c1)CN(C(=O)c1ccccc1)C2)c1cc([N+](=O)[O-])cc([N+](=O)[O-])c1` gave a minimal inhibitory concentration (MIC) of 1.45 µg/mL (≈ 3.25 µM).
On to `O=C(NCc1ccc2c(c1)CN(c1ccc(F)cc1)C2)c1cc([N+](=O)[O-])cc([N+](=O)[O-])c1`, for which the MIC in assay [1] came out at 0.026 µg/mL (≈ 0.0596 µM).
As for `O=C(NCc1ccc2c(c1)CCN(Cc1ccc(OC(F)(F)F)cc1)C2)c1cc([N+](=O)[O-])cc([N+](=O)[O-])c1`, in assay [1], the MIC was found to be 0.241 µg/mL (≈ 0.454 µM).
With `CO[C@H]1/C=C/O[C@@]2(C)Oc3c(C)c(O)c4c(O)c(c(/C=N/N5CCN(C)CC5)c(O)c4c3C2=O)NC(=O)/C(C)=C\C=C\[C@H](C)[C@H](O)[C@@H](C)[C@@H](O)[C@@H](C)[C@H](OC(C)=O)[C@@H]1C` [RIFAMPIN], in assay [1], the MIC worked out at 0.095 µg/mL (≈ 0.115 µM). Compared with the last compound, the MIC is about 2.5-fold lower.
In assay [1], `COc1ccc(C(=O)N2CCc3cc(CNC(=O)c4cc([N+](=O)[O-])cc([N+](=O)[O-])c4)ccc3C2)cc1` had an MIC of 1.15 µg/mL (≈ 2.34 µM).
`O=C(NCc1ccc2c(c1)CCN(Cc1ccc(Br)cc1)C2)c1cc([N+](=O)[O-])cc([N+](=O)[O-])c1` had a minimum inhibitory concentration (MIC) in assay [1] of 0.108 µg/mL (≈ 0.206 µM).
In assay [1], `O=C(CN1CCc2cc(CNC(=O)c3cc([N+](=O)[O-])cc([N+](=O)[O-])c3)ccc2C1)NCc1ccccc1` gave an MIC of 3.96 µg/mL (≈ 7.86 µM).
In the case of `O=C(NCc1ccc2c(c1)CCN(c1ccc(F)cc1)C2)c1cc([N+](=O)[O-])cc([N+](=O)[O-])c1`, the MIC in assay [1] is 0.076 µg/mL (≈ 0.169 µM).
On to `O=c1nc(N2CCN(CC3CCCCC3)CC2)sc2c([N+](=O)[O-])cc(C(F)(F)F)cc12` [MACOZINONE], for which the MIC in assay [1] is under 0.016 µg/mL.
